According to US20030232986A1, “Inhibitors of caspases” (Vertex Pharmaceuticals Incorporated, priority 1998, published 2003):
Where two headings read alike, the source gives them in different places. Where a SMILES comes first, the peptide text is derived from it. [ ]: non-standard residue; d: D form. The star is where a group is joined. Tle = CC(C)(C)[C@H](N)C(=O)O; Bz = O=C(c1ccccc1)*

Columns and labels:
[1] = molecular target: T1, Caspase-1 (Homo sapiens, UniProt P29466); assay: Caspase-1 enzyme inhibition (Ki); format: biochemical
T1 sequence (P29466 120-297 limits assumed): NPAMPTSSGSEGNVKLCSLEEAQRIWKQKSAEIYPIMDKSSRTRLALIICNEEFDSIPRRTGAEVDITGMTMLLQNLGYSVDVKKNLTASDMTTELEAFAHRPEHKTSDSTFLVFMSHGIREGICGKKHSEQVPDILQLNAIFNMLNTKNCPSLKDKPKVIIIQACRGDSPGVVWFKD
T1 sequence (P29466 317-404 limits assumed): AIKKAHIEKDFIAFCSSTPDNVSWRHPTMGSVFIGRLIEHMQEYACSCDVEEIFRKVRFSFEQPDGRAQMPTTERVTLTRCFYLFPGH
Description: Ki values for test compounds with the various caspases were obtained by the method of Margolin et al. (J. Biol. Chem., 272 pp. 7223-7228 (1997)). Assays were performed in 10 mM Tris (Sigma Corp, St Louis Mo.) pH 7.5, 1 mM Dithiothreitol (DTT, Research Organic INC, Cleveland, Ohio) and 0.1% CHAPS (Pierce, Rockford Ill.) at 37° C. For caspase-3, a solution of 8% glycerol was added to the assay buffer to improve enzyme stability. A 65 μL aliquot of the assay buffer and 5 μL aliquot of the appropriate dilutions of inhibitor in DMSO where pipetted into a 96 well plate, treated with 10 μL of caspase, then diluted in assay buffer (0.5-40 nM active protein by active site titration). A control containing DMSO but no compound was included for each determination. The plates were then incubated for 15 minutes at 37° C., before addition of the appropriate substrate (20 μL, final concentration 1-4×KM, final assay volume 100 μL) to initiate the reaction. Reaction rates were measured at 37° C. either by following the time dependant increase in absorbance at 405 nm (for the pNA substrates) or in fluorescence (Ex 390, Em 460) (for the AMC substrates). The rates obtained were plotted against inhibitor concentration and the data fit to the Morrison tight-binding equation for competitive inhibitors (Morrison, J. F., Biochem. Biophys. Acta, 185 pp. 269-286 (1969)). The substrates used for the individual assays were as follows:
Caspase-1 Suc-YVAD-pNA (Bachem, King of Prussia, Pa.) (final concentration in the assay 80 μM),

[2] = system: Human Peripheral Blood Mononuclear Cells (PBMC), mature IL-1β; assay: PBMC cell assay: IL-1β assay with human peripheral blood mononuclear cells; format: cell-based; details: LPS-stimulated human PBMC, mature IL-1β in supernatant by ELISA
Description: IL-1β Assay with a Mixed Population of Human Peripheral Blood Mononuclear Cells (PBMC) or Enriched Adherent Mononuclear Cells
Processing of pre-IL-1β by ICE can be measured in cell culture using a variety of cell sources. Human PBMC obtained from healthy donors provides a mixed population of lymphocyte subtypes and mononuclear cells that produce a spectrum of interleukins and cytokines in response to many classes of physiological stimulators. Adherent mononuclear cells from PBMC provides an enriched source of normal monocytes for selective studies of cytokine production by activated cells.
An initial dilution series of test compound in DMSO or ethanol is prepared, with a subsequent dilution into RPMI-10% FBS media (containing 2 mM L-glutamine, 10 mM HEPES, 50 U and 50 ug/ml pen/strep) respectively to yield drugs at 4× the final test concentration containing 0.4% DMSO or 0.4% ethanol. The final concentration of DMSO is 0.1% for all drug dilutions. A concentration titration which brackets the apparent Ki for a test compound determined in an ICE inhibition assay is generally used for the primary compound screen.
Generally 5-6 compound dilutions are tested and the cellular component of the assay is performed in duplicate, with duplicate ELISA determinations on each cell culture supernatant.
Buffy coat cells isolated from one pint human blood (yielding 40-45 ml final volume plasma plus cells) are diluted with media to 80 ml and LeukoPREP separation tubes (Becton Dickinson) are each overlaid with 10 ml of cell suspension. After 15 min centrifugation at 1500-1800×g, the plasma/media layer is aspirated and then the mononuclear cell layer is collected with a Pasteur pipette and transferred to a 15 ml conical centrifuge tube (Corning). Media is added to bring the volume to 15 ml, gently mix the cells by inversion and centrifuge at 300×g for 15 min. The PBMC pellet is resuspended in a small volume of media, the cells are counted and adjusted to 6×10^6 cells/ml.
For the cellular assay, 1.0 ml of the cell suspension is added to each well of a 24-well flat bottom tissue culture plate (Corning), 0.5 ml test compound dilution and 0.5 ml LPS solution (Sigma #L-3012; 20 ng/ml solution prepared in complete RPMI media; final LPS concentration 5 ng/ml). The 0.5 ml additions of test compound and LPS are usually sufficient to mix the contents of the wells. Three control mixtures are run per experiment, with either LPS alone, solvent vehicle control, and/or additional media to adjust the final culture volume to 2.0 ml. The cell cultures are incubated for 16-18 hr at 37° C. in the presence of 5% CO2.
At the end of the incubation period, cells are harvested and transferred to 15 ml conical centrifuge tubes. After centrifugation for 10 min at 200×g, supernatants are harvested and transferred to 1.5 ml Eppendorf tubes. It may be noted that the cell pellet may be utilized for a biochemical evaluation of pre-IL-1β and/or mature IL-1β content in cytosol extracts by Western blotting or ELISA with pre-IL-1β specific antisera.
PBMC are isolated and prepared as described above. Media (1.0 ml) is first added to wells followed by 0.5 ml of the PBMC suspension. After a one hour incubation, plates are gently shaken and nonadherent cells aspirated from each well. Wells are then gently washed three times with 1.0 ml of media and final resuspended in 1.0 ml media. The enrichment for adherent cells generally yields 2.5-3.0×10^5 cells per well. The addition of test compounds, LPS, cell incubation conditions and processing of supernatants proceeds as described above.
Quantikine kits (R&D Systems) may be used for the measurement of mature IL-1β. Assays are performed according to the manufacturer's directions. Mature IL-1β levels of about 1-3 ng/ml in both PBMC and adherent mononuclear cell positive controls are observed. […]

[3] = substrate Suc-YVAD-pNA 80 μM, 37° C., pH 7.5

Row | Compound | Ki [1, 3] [nM] | Ki [1] [nM] | IC50 [2] [nM]
1 | COc1c(Cl)cc(C(=O)N[C@H](C(=O)N2CCC[C@H]2C(=O)N[C@H](C=O)CC(=O)O)C(C)C)cc1Cl [Example 5al] | < 10 |  | > 2000
2 | CC(C)[C@H](NC(=O)c1ccc(C(C)(C)C)cc1)C(=O)N1CCC[C@H]1C(=O)N[C@H](C=O)CC(=O)O [Example 5am] | < 10 |  | > 2000
3 | CCCN(CCC)S(=O)(=O)c1ccc(C(=O)N[C@H](C(=O)N2CCC[C@H]2C(=O)N[C@H](C=O)CC(=O)O)C(C)C)cc1 [Example 5ao] | 10 to 1000 |  | > 2000
4 | CC(C)[C@H](NC(=O)c1csc(C2COc3ccccc3O2)n1)C(=O)N1CCC[C@H]1C(=O)N[C@H](C=O)CC(=O)O (stereo partly shown) [Example 5aq] | 10 to 1000 |  | > 2000
5 | Cc1nn(C)c2ncc(C(=O)N[C@H](C(=O)N3CCC[C@H]3C(=O)N[C@H](C=O)CC(=O)O)C(C)C)c(SC(C)C)c12 [Example 5ar] | < 10 |  | > 2000
6 | CC(C)[C@H](NC(=O)c1ccc2ncsc2c1)C(=O)N1CCC[C@H]1C(=O)N[C@H](C=O)CC(=O)O [Example 5as] | < 10 |  | > 2000
7 | CCCc1c(C(=O)N[C@H](C(=O)N2CCC[C@H]2C(=O)N[C@H](C=O)CC(=O)O)C(C)C)cnn1-c1ccc(Cl)cc1 [Example 5at] | 10 to 1000 |  | > 2000
8 | Cc1oc(-c2ccccc2)cc1C(=O)N[C@H](C(=O)N1CCC[C@H]1C(=O)N[C@H](C=O)CC(=O)O)C(C)C [Example 5au] | 10 to 1000 |  | > 2000
9 | CC(C)[C@H](NC(=O)c1ccc(CSc2ccccn2)o1)C(=O)N1CCC[C@H]1C(=O)N[C@H](C=O)CC(=O)O [Example 5av] | 10 to 1000 |  | > 2000
10 | COc1cccc(Oc2ccc(OC)cc2C(=O)N[C@H](C(=O)N2CCC[C@H]2C(=O)N[C@H](C=O)CC(=O)O)C(C)C)c1 [Example 5aw] | < 10 |  | 1000 to 2000
11 | CC(C)[C@H](NC(=O)c1ccccc1-c1ccc(C(F)(F)F)cc1)C(=O)N1CCC[C@H]1C(=O)N[C@H](C=O)CC(=O)O [Example 5ba] | < 10 |  | 1000 to 2000
12 | CCCc1ccc(-c2ccc(C(=O)N[C@H](C(=O)N3CCC[C@H]3C(=O)N[C@H](C=O)CC(=O)O)C(C)C)cc2)cc1 [Example 5bd] | < 10 |  | 1000 to 2000
13 | Cc1ccc2ccccc2c1C(=O)N[C@H](C(=O)N1CCC[C@H]1C(=O)N[C@H](C=O)CC(=O)O)C(C)C [Example 5g] | 10 to 1000 |  | 1000 to 2000
14 | CC(C)Cc1ccc(C(C)C(=O)N[C@H](C(=O)N2CCC[C@H]2C(=O)N[C@H](C=O)CC(=O)O)C(C)C)cc1 (stereo partly shown) [Example 5v] | 10 to 1000 | 10 to 1000 | > 2000
15 | COc1c(Cl)cc(C(=O)N[C@H](C(=O)N2CCNC[C@H]2C(=O)N[C@H](C=O)CC(=O)O)C(C)C)cc1Cl [Example 15d] | 10 to 1000 |  | 1000 to 2000
16 | CC(C)[C@H](NC(=O)c1ccc(N)c(Cl)c1)C(=O)N1CCNC[C@H]1C(=O)N[C@H](C=O)CC(=O)O [Example 15e] | 10 to 1000 |  | > 2000
17 | CC(C)[C@H](NC(=O)c1nccc2ccccc12)C(=O)N1CCNC[C@H]1C(=O)N[C@H](C=O)CC(=O)O [Example 15f] | 10 to 1000 |  | > 2000
18 | C[C@H](NC(=O)c1nccc2ccccc12)C(=O)N1CCNC[C@H]1C(=O)N[C@H](C=O)CC(=O)O [Example 16a] | 10 to 1000 |  | < 500

Second part, led by results:

Row | Ki [1, 3] [nM] | Ki [1] [nM] | Compound | IC50 [2] [nM]
19 | 10 to 1000 |  | CC(C)[C@H](NC(=O)c1nccc2ccccc12)C(=O)N1CCN(C)C[C@H]1C(=O)N[C@H](C=O)CC(=O)O [Example 17b] | 1000 to 2000
20 | < 10 |  | COc1c(Cl)cc(C(=O)N[C@H](C(=O)N2CCN(C(C)=O)C[C@H]2C(=O)N[C@H](C=O)CC(=O)O)C(C)C)cc1Cl [Example 17c] | > 2000
21 | 10 to 1000 |  | CC(=O)N1CCN(C(=O)[C@@H](NC(=O)c2ccc(N)c(Cl)c2)C(C)C)[C@H](C(=O)N[C@H](C=O)CC(=O)O)C1 [Example 17d] | > 2000
22 | 10 to 1000 |  | CC(=O)N1CCN(C(=O)[C@@H](NC(=O)c2nccc3ccccc23)C(C)C)[C@H](C(=O)N[C@H](C=O)CC(=O)O)C1 [Example 17e] | 500 to 1000
23 | 10 to 1000 |  | CS(=O)(=O)CC[C@H](NC(=O)c1ccc(N)c(Cl)c1)C(=O)N1CCC[C@H]1C(=O)N[C@H](C=O)CC(=O)O [Example 20j] | > 2000
24 | > 1000 |  | CC(C)[C@H](N)C(=O)N1CC(c2ccccc2)[C@H]1C(=O)N[C@H](C=O)CC(=O)O (stereo partly shown) [Example 24b] | > 2000
25 | < 10 |  | CC(C)[C@H](NC(=O)c1ccccc1)C(=O)N1CC[C@H](C)[C@H]1C(=O)N[C@H](C=O)CC(=O)O [Example 26a] | 1000 to 2000
26 | < 10 |  | Cc1cc(C(=O)N[C@H](C(=O)N2CC[C@H](C)[C@H]2C(=O)N[C@H](C=O)CC(=O)O)C(C)C)cc(C)c1O [Example 26b] | 500 to 1000
27 | < 10 |  | C[C@H](NC(=O)[C@@H](NC(=O)c1ccccc1)C(C)(C)C)C(=O)N[C@H](C=O)CC(=O)O [Example 29m] (Bz-[Tle]-Ala-Asp-aldehyde) | 500 to 1000
